Earlier results, collected in patent US9856304B2, “Peptide and application thereof” (Saitama Medical University, priority 2013, dated 2018).

Tested on: pancreatic β cells
Conditions: as described in Patent Document 1; cited from earlier work
In the case of “C: 19 amino acid fragment of human TM4SF20, Position 161 to 179, from Patent Document 1 (TSNDTMASGWRASSFHFDS; listed as Homo sapiens)”, the “activity for promoting increase in pancreatic β cells” value (“activity for promoting increase” below) is listed as “not as high as expected”.
In the case of “Peptide A: 19 amino acid fragment of human TM4SF20, Position 98 to 116, from Patent Document 1 (ALYCMLISIQALLKGPLMC; listed as Homo sapiens)”, the “activity for promoting increase” value is listed as “not as high as expected”.
For “B: 19 amino acid fragment of human TM4SF20, Position 78 to 96, from Patent Document 1 (CNNRTGMFLSSLFSVITVI; listed as Homo sapiens)”, the “activity for promoting increase” value is listed as “not as high as expected”.
